Results from patent publication US7838230B2 (priority 2004, dated 2010).

How the values were obtained:
[1] = target: T1, topoisomerase IV (Escherichia coli, UniProt P0AFI2+P20083); assay: Topoisomerase IV relaxation, microplate assay; format: biochemical
[2] = target: T1, topoisomerase IV; assay: Topoisomerase IV relaxation, gel electrophoresis assay; format: biochemical

T1 sequence (P20083 whole entry): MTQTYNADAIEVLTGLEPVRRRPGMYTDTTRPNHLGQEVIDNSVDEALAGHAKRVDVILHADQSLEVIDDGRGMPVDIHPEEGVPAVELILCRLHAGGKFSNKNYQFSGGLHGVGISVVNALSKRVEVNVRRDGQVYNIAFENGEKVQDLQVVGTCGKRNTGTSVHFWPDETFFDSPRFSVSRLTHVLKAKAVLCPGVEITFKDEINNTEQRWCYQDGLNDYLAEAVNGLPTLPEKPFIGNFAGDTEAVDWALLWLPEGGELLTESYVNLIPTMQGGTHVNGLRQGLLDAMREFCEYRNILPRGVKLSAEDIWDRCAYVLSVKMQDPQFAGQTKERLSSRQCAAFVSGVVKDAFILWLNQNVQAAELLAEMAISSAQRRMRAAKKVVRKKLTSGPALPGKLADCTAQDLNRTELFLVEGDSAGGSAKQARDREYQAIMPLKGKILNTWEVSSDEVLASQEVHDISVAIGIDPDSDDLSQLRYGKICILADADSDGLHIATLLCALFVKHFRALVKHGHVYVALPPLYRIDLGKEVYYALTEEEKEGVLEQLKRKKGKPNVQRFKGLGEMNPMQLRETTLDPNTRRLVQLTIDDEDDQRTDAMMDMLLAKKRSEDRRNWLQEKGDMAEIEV
T1 sequence (P0AFI2 whole entry): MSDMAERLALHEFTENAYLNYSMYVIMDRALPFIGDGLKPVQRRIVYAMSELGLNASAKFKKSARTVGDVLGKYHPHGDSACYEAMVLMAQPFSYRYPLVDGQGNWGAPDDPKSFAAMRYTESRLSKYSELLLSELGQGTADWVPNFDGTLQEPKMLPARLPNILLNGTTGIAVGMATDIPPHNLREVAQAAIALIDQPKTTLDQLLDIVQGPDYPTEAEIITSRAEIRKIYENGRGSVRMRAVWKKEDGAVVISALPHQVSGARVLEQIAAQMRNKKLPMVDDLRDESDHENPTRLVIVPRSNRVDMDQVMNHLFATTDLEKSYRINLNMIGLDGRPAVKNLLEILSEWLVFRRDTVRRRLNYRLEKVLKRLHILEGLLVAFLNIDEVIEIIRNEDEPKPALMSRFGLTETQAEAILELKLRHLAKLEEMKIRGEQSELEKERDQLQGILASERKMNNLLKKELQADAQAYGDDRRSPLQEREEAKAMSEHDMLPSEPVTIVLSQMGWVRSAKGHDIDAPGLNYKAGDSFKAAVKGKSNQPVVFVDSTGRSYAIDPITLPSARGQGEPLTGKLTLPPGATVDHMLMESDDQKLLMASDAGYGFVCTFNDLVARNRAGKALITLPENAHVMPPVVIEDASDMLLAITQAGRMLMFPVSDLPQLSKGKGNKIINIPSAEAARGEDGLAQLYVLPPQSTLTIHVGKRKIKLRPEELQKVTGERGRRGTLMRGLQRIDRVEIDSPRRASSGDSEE

Row | Compound | IC50 [1] [µM] | IC50 [2] [µM] | IC50 ([1]; supercoiled pNO1 substrate, plate assay, read-out: Topo IV Relaxation IC50 Plate assay) [µM] | IC50 ([2]; supercoiled pNO1 substrate, gel assay, read-out: Topo IV Relaxation IC50 Gel assay) [µM]
1 | CCn1cc(C(=O)O)c(=O)c2ccc(C)nc21 [Naladixic acid] | 88.4 | 36.3 | – | –
2 | CO[C@@H]1[C@@H](OC(=O)c2ccc(C)[nH]2)[C@@H](O)[C@H](Oc2ccc3c(O)c(NC(=O)c4ccc(O)c(CC=C(C)C)c4)c(=O)oc3c2Cl)OC1(C)C [Chlorbiocin] | – | – | 0.32 | 0.14
